ChEMBL document CHEMBL1201862, “PubChem BioAssay data set” (2004)
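Method: 48-hour compound exposure of cells in 96-well plates, five concentrations, linear interpolation of endpoints. Here, GI50 denotes the concentration required for 50% inhibition of growth.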 The source made the active and inactive calls. Cut-off read from the data, not from the text of the source: active = GI50 up to about 1.1 µM and inactive = higher.

Columns and labels:
Experiment in all cases: NCI tumour cell line growth inhibition, 48 h
BT-549 = system: BT-549
CCRF-CEM = system: CCRF-CEM
COLO 205 = system: COLO 205
DU-145 = system: DU-145
EKVX = system: EKVX
HCT-116 = system: HCT-116
Hs-578T = system: Hs-578T
KM12 = system: KM12
MDA-MB-435 = system: MDA-MB-435
MDA-N = system: MDA-N
NCI-H226 = system: NCI-H226
NCI-H460 = system: NCI-H460
NCI-H522 = system: NCI-H522
OVCAR-3 = system: OVCAR-3
RXF 393 = system: RXF 393
SK-MEL-2 = system: SK-MEL-2
SK-OV-3 = system: SK-OV-3
SN12C = system: SN12C
UACC-62 = system: UACC-62
UO-31 = system: UO-31

Measured: GI50

COc1cc(OC)c(-n2[nH]c(=O)n(C)c2=O)c(OC)c1
inactive: BT-549 > 100 µM | CCRF-CEM > 100 µM | COLO 205 > 100 µM | DU-145 > 100 µM | EKVX > 100 µM | HCT-116 > 100 µM | Hs-578T > 100 µM | KM12 > 100 µM | MDA-MB-435 > 100 µM | MDA-N > 100 µM | NCI-H226 > 100 µM | NCI-H460 > 100 µM | NCI-H522 49.7 µM | OVCAR-3 > 100 µM | RXF 393 > 100 µM | SK-MEL-2 > 100 µM | SK-OV-3 > 100 µM | SN12C > 100 µM | UACC-62 > 100 µM | UO-31 > 100 µM

CCN(CC)CCCNc1ccc2nnn3c4ccc(O)cc4c(=O)c1c23
active: NCI-H460 0.653 µM | UO-31 0.968 µM
inactive: BT-549 14 µM | CCRF-CEM 2.29 µM | COLO 205 2.81 µM | DU-145 11.9 µM | EKVX 16.1 µM | HCT-116 1.15 µM | Hs-578T 14.4 µM | KM12 6.61 µM | MDA-MB-435 10.2 µM | MDA-N 8.71 µM | NCI-H226 6.87 µM | NCI-H522 3.05 µM | OVCAR-3 11.4 µM | RXF 393 1.64 µM | SK-MEL-2 15.1 µM | SK-OV-3 8.87 µM | SN12C 5.57 µM | UACC-62 16.6 µM

CCOP(=O)(OCC)OC1c2[nH]cc(C(=O)OCc3ccccc3)c2-c2cc(C(=O)OC)[nH]c2C1OC (stereo not given)
inactive: BT-549 12.1 µM | CCRF-CEM > 24.8 µM | COLO 205 6.89 µM | DU-145 11 µM | EKVX 5.94 µM | HCT-116 6.4 µM | Hs-578T 16.8 µM | KM12 7.96 µM | MDA-MB-435 > 60.1 µM | MDA-N 17.5 µM | NCI-H226 16.1 µM | NCI-H460 4.55 µM | NCI-H522 6.53 µM | OVCAR-3 11.2 µM | RXF 393 8.18 µM | SK-MEL-2 9.4 µM | SK-OV-3 17.7 µM | SN12C 16.4 µM | UACC-62 7.05 µM | UO-31 4.57 µM

Cc1ncc([N+](=O)[O-])n1CCNCCCCn1ccnc1[N+](=O)[O-]
inactive: BT-549 45.5 µM | CCRF-CEM > 100 µM | COLO 205 > 100 µM | DU-145 > 100 µM | EKVX > 100 µM | HCT-116 > 100 µM | Hs-578T > 100 µM | KM12 > 100 µM | MDA-MB-435 > 100 µM | MDA-N > 100 µM | NCI-H226 > 100 µM | NCI-H460 > 100 µM | NCI-H522 > 100 µM | OVCAR-3 > 100 µM | RXF 393 > 100 µM | SK-MEL-2 > 100 µM | SK-OV-3 > 100 µM | SN12C > 100 µM | UACC-62 > 100 µM | UO-31 > 100 µM

O=C1C(CN2CCCC2)CCC1CN1CCCC1 (stereo not given)
inactive: BT-549 17.5 µM | CCRF-CEM 3.52 µM | COLO 205 5.71 µM | DU-145 97.3 µM | EKVX > 49.7 µM | HCT-116 17.5 µM | Hs-578T 22.3 µM | KM12 > 100 µM | MDA-MB-435 17.6 µM | MDA-N 16 µM | NCI-H226 > 48.2 µM | NCI-H460 > 100 µM | NCI-H522 1.9 µM | OVCAR-3 17.1 µM | RXF 393 20.4 µM | SK-MEL-2 21.2 µM | SK-OV-3 > 100 µM | SN12C 26.7 µM | UACC-62 17.5 µM | UO-31 17.8 µM

C=C1C(=O)OC2C3C(=C)[C@@H](OC(C)=O)CC3C(C)=CC(OC(=O)C(C)(O)C(C)OC(C)=O)[C@@H]12 (stereo not given in full)
inactive: BT-549 13.6 µM | CCRF-CEM 2.84 µM | COLO 205 4.15 µM | DU-145 16.2 µM | EKVX 16.1 µM | HCT-116 5.02 µM | Hs-578T 12.8 µM | KM12 15.2 µM | MDA-MB-435 8.93 µM | MDA-N 5.82 µM | NCI-H226 21.6 µM | NCI-H460 17.6 µM | NCI-H522 1.52 µM | OVCAR-3 9.82 µM | RXF 393 3.61 µM | SK-MEL-2 4.98 µM | SK-OV-3 80.9 µM | SN12C 14.7 µM | UACC-62 10.6 µM | UO-31 12.4 µM

O=C(CCc1cccc(O)c1)NCCc1ccc(O)cc1
inactive: BT-549 > 100 µM | CCRF-CEM > 100 µM | COLO 205 > 100 µM | DU-145 > 100 µM | EKVX > 100 µM | HCT-116 > 100 µM | Hs-578T > 100 µM | KM12 > 100 µM | MDA-MB-435 > 100 µM | MDA-N > 100 µM | NCI-H226 > 100 µM | NCI-H460 > 100 µM | NCI-H522 17.3 µM | OVCAR-3 > 100 µM | RXF 393 > 100 µM | SK-MEL-2 > 100 µM | SK-OV-3 > 100 µM | SN12C > 100 µM | UACC-62 > 100 µM | UO-31 > 100 µM
